Data taken from patent US5112741A, “Acetaldehyde trapping system” (Enzymatics, Inc., priority 1988, dated 1992).

Assays:
[1] = Trapping of aldehyde/ketone oxidation product and alcohol conversion in enzymatic determination of alcohol (general statements); assay type: biochemical; conditions: diamine alone, without alpha-effect amine
Text: For reasons which are not well understood at the present time, the use of a combination of alpha-effect and primary amines according to the present invention dramatically increases the aldehyde/ketone trapping capacity of the amine trap, as compared to prior art amine traps consisting essentially of primary amine or of alpha-effect amine. Increases in trapping capacity, as measured by effective inactivation of aldehyde/ketone oxidation product in the reaction mixture, of up to about 100-fold over known prior art traps are typical.
With proper selection of amines, typical substrate conversions of about 100% are obtainable without dilution of the sample alcohol concentrations up to about 150 mM, thus permitting accurate and reliable end-point determinations. Such conversions are obtained by selection of amines for trap efficiency so that accumulation of active oxidation product is avoided. This ensures that a favorable reaction equilibrium is established, and that the catalyzing enzyme is not deactivated by oxidation product; the use of amines in the practice of the invention which tend to deactivate the catalyzing enzyme should, of course, be avoided.

[2] = test system: alcohol dehydrogenase; assay: Relative equilibrium constants of trapping agents from NADH production by alcohol dehydrogenase after 10 minutes; assay type: biochemical; conditions: 5 mM trapping agent, 200 mM Glycine pH 9.5, 10 mM NAD, 5 mM ethanol, 125 IU ADH
Protocol: The relative equilibrium constants for trapping agents are listed below in Table 1. […] The reaction formulation was as follows: […] 5 mM ethanol 5 mM trapping agent 125 IU ADH

[3] = test system: ADH; assay: Enzymatic oxidation of 65 mM ethanol by ADH/NAD in presence of trapping mixture; assay type: biochemical; conditions: 650 mM, Tris without alpha-effect amine, or carboxymethoxyamine and borate buffer without primary amine
Protocol: To a reaction mixture containing 5 IU ADH, 100 mM NAD, pH 9.5 and 65 mM ethanol was added a trapping mixture containing:
50 mM Carboxymethoxyamine, pH 10
A trapping mixture containing:
150 mM Carboxymethoxyamine, pH 10
was substituted for the trap in Example 1.
100 mM Hexanediamine, pH 10
150 mM Allylhydroxylamine, pH 9.8
100 mM Nitrobenzylhydroxylamine, pH 10

[4] = test system: alcohol dehydrogenase (ADH); conditions: cited from earlier work
[5] = test system: alcohol dehydrogenase (ADH); conditions: background statement; cited from earlier work

Compound | RELATIVE EQUILIBRIUM CONSTANT [2] | other results
NCCCCCCN [1,6-hexanediamine] |  | Performance as sole trapping agent [1]: very satisfactory results are obtained
C=CCON [Allylhydroxylamine] | 25.3 | 
NOCC(=O)O [Carboxymethoxyamine] | 38.6 | Alcohol oxidation, single amine type [3]: did not result in the complete oxidation of the alcohol
CCON [Ethylhydroxylamine] | 11.8 | 
CON [Methoxyamine] | 11.7 | 
NOCc1ccccc1 [O-Benzylhydroxylamine] | 40.9 | 
NC(CO)(CO)CO [Tris, Tris hydroxyl methylamine methane] | .2 | Alcohol oxidation, single amine type [3]: did not result in complete alcohol oxidation; Conversion of the alcohol ([4]; ADH confined by semi-permeable membrane, continuous flow): about 18%; Capability of trapping high acetaldehyde concentrations ([4]; Tris by itself, acetaldehyde on the order of 85 mM): not capable by itself of reacting with and removing such high concentrations of acetaldehyde
CC=O [acetaldehyde] |  | Acetaldehyde concentration that inhibits alcohol dehydrogenase [5]: greater than 1 mM
Nitrobenzylhydroxylamine | 202.0 | 
